Measured values from ChEMBL document CHEMBL5291721, “A preclinical secondary pharmacology resource illuminates target-adverse drug reaction associations of marketed drugs” (Nat Commun, 2023).

What was measured:
[1] = target: Receptor tyrosine-protein kinase erbB-2 (Homo sapiens, UniProt P04626); type: functional
Estrogen receptor = target: T1, Estrogen receptor (Homo sapiens, UniProt P03372); type: functional
T1 sequence (P03372 whole entry): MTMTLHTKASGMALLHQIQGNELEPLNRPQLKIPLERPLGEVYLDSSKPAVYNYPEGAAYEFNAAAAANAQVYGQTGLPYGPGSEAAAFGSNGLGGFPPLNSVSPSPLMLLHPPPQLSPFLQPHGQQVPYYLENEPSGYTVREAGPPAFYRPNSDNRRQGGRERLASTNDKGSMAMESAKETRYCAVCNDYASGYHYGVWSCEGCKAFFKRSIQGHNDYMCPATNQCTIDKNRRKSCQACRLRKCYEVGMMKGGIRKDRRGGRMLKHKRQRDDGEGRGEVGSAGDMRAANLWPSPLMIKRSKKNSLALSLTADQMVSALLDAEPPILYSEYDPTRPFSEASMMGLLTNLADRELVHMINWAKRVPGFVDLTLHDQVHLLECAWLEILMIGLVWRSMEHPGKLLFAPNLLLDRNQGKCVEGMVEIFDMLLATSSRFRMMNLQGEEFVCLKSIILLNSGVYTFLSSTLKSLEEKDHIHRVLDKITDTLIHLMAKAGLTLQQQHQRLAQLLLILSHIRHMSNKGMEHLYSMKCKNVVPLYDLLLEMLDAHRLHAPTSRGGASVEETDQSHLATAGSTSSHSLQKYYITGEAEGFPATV

[2] = target: Gamma-aminobutyric acid receptor subunit alpha-1/alpha-2/beta-2/gamma-2 (Homo sapiens, UniProt P14867+P18507+P47869+P47870); type: functional, cell-based
Gamma-aminobutyric acid receptor subunit alpha-1/alpha-2/beta-2/gamma-2, sequence (P14867 whole entry): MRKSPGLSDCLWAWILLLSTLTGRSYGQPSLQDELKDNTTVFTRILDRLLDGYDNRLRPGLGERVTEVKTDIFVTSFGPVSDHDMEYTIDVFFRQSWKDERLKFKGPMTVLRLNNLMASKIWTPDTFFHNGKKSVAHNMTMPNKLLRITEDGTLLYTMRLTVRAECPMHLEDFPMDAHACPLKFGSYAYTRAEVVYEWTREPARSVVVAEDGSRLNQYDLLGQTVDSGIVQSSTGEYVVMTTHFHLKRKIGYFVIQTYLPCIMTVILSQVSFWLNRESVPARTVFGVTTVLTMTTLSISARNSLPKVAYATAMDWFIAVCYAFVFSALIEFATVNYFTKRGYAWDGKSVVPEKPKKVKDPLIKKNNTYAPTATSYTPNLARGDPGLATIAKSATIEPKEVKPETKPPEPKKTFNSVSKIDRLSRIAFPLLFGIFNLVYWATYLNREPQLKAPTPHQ
Gamma-aminobutyric acid receptor subunit alpha-1/alpha-2/beta-2/gamma-2, sequence (P47870 whole entry): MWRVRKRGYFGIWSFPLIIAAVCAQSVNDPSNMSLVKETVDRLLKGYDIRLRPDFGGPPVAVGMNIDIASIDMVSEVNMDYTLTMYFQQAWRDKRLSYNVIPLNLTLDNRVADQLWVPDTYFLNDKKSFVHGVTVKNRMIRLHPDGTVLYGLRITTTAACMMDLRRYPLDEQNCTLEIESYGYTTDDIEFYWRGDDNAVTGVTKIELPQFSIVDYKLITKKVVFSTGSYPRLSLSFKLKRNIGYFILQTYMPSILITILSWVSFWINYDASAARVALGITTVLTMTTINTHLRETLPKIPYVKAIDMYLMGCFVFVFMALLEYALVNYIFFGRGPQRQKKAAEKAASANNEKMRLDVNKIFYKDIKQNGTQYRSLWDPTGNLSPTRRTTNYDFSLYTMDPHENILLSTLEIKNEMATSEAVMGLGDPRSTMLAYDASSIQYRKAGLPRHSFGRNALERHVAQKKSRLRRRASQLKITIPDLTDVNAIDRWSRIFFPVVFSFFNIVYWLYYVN
Gamma-aminobutyric acid receptor subunit alpha-1/alpha-2/beta-2/gamma-2, sequence (P18507 whole entry): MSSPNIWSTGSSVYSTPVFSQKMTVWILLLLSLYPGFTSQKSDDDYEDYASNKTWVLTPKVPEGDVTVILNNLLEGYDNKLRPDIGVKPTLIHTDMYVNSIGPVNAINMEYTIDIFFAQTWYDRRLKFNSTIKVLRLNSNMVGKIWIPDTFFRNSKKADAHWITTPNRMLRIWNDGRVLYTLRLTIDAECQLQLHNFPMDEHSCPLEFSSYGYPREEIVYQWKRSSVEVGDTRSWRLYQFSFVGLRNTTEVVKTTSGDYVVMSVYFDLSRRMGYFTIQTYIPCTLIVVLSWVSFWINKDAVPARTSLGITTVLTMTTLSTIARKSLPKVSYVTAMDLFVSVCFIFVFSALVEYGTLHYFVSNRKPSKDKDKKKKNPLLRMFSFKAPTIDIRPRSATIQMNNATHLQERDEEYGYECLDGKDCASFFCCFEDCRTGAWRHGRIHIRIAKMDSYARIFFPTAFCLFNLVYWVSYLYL
Gamma-aminobutyric acid receptor subunit alpha-1/alpha-2/beta-2/gamma-2, sequence (P47869 whole entry): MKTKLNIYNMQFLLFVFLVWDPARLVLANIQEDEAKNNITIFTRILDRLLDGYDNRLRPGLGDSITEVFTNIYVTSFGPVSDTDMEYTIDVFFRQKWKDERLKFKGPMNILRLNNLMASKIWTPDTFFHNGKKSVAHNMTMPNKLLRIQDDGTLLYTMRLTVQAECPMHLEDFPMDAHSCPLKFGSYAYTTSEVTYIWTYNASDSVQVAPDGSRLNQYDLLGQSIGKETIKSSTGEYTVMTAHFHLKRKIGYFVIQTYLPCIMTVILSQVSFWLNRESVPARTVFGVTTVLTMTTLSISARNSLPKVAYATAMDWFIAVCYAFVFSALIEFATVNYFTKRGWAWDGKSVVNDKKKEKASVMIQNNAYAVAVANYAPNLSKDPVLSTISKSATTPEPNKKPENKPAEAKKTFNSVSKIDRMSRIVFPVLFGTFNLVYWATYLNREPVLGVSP
Note: assay procedure not described here.

Receptor tyrosine-protein kinase erbB-2, sequence (P04626 whole entry): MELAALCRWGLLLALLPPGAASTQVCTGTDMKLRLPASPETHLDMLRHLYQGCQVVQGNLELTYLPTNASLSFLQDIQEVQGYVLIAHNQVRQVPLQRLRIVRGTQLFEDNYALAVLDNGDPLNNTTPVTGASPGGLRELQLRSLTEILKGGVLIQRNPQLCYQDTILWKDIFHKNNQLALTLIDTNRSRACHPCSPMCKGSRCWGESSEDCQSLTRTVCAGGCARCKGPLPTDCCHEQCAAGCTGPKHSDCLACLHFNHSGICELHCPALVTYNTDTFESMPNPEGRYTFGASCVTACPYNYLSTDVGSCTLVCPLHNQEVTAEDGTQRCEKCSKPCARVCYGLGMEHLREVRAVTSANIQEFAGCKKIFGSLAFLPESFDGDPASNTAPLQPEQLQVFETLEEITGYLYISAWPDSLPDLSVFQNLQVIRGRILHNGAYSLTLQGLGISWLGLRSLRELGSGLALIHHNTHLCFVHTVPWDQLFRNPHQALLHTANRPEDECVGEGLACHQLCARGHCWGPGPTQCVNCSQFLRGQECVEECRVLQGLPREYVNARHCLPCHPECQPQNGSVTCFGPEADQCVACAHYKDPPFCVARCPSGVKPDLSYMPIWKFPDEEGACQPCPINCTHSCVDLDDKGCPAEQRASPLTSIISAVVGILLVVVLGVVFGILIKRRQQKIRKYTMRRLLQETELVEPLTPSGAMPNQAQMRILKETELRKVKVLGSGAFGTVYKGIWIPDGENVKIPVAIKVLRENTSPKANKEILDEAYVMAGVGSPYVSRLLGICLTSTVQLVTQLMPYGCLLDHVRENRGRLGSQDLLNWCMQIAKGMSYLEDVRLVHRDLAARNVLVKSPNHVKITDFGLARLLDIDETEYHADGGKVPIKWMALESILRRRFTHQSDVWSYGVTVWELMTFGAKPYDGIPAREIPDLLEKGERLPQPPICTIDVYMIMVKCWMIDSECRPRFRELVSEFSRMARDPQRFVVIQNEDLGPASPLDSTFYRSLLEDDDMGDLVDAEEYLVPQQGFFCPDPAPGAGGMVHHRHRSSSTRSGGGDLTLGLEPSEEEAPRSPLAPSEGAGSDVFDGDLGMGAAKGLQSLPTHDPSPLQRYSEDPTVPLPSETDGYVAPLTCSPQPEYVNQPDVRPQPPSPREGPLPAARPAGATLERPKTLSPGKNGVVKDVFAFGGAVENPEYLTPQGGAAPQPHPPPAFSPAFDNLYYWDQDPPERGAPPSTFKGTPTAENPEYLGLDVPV

Structure (SMILES) | AC50 [1] | AC50 (Estrogen receptor) | AC50 [2]
C[C@H](Nc1ncnc2[nH]cnc12)c1cc2cccc(Cl)c2c(=O)n1-c1ccccc1 [DUVELISIB] | > 30 µM | > 30 µM | > 30 µM
O=C1[C@@H]2[C@H]3CC[C@H](C3)[C@@H]2C(=O)N1C[C@@H]1CCCC[C@H]1CN1CCN(c2nsc3ccccc23)CC1 [LURASIDONE] | > 30 µM | > 30 µM | > 30 µM
c1cnc2cc3c(cc2n1)[C@@H]1CNC[C@H]3C1 [VARENICLINE] | > 30 µM | 4.6 µM | > 30 µM
CN1CC2c3ccccc3Oc3ccc(Cl)cc3C2C1 (stereo not drawn) [ASENAPINE] | > 30 µM | > 30 µM | 6.5 µM
Cn1cnc2c(F)c(Nc3ccc(Br)cc3F)c(C(=O)NOCCO)cc21 [BINIMETINIB] | > 30 µM | > 30 µM | > 30 µM
C[C@@H](O)[C@H]1C(=O)N2C(C(=O)O)=C(SCCN=CN)C[C@H]12 [IMIPENEM ANHYDROUS] | > 300 µM | > 300 µM | > 2400 µM
